Measured values taken from patent US9237996B2, “Glucosyltransferase inhibitor containing epigallocatechin gallate polymer as active ingredient” (priority 2008, dated 2016).

Key:
[1] = target: T1, glucosyltransferase B (GTFB) (Streptococcus mutans serotype c, UniProt P08987); assay: Glucosyltransferase inhibitory activity, turbidity (550 nm) of water-insoluble glucan, rGTFB; type: biochemical; details: 37° C. overnight
T1 construct: made in house; host or cells: Escherichia coli XL-2 harboring plasmid pSK6
T1 sequence (P08987 35-1476): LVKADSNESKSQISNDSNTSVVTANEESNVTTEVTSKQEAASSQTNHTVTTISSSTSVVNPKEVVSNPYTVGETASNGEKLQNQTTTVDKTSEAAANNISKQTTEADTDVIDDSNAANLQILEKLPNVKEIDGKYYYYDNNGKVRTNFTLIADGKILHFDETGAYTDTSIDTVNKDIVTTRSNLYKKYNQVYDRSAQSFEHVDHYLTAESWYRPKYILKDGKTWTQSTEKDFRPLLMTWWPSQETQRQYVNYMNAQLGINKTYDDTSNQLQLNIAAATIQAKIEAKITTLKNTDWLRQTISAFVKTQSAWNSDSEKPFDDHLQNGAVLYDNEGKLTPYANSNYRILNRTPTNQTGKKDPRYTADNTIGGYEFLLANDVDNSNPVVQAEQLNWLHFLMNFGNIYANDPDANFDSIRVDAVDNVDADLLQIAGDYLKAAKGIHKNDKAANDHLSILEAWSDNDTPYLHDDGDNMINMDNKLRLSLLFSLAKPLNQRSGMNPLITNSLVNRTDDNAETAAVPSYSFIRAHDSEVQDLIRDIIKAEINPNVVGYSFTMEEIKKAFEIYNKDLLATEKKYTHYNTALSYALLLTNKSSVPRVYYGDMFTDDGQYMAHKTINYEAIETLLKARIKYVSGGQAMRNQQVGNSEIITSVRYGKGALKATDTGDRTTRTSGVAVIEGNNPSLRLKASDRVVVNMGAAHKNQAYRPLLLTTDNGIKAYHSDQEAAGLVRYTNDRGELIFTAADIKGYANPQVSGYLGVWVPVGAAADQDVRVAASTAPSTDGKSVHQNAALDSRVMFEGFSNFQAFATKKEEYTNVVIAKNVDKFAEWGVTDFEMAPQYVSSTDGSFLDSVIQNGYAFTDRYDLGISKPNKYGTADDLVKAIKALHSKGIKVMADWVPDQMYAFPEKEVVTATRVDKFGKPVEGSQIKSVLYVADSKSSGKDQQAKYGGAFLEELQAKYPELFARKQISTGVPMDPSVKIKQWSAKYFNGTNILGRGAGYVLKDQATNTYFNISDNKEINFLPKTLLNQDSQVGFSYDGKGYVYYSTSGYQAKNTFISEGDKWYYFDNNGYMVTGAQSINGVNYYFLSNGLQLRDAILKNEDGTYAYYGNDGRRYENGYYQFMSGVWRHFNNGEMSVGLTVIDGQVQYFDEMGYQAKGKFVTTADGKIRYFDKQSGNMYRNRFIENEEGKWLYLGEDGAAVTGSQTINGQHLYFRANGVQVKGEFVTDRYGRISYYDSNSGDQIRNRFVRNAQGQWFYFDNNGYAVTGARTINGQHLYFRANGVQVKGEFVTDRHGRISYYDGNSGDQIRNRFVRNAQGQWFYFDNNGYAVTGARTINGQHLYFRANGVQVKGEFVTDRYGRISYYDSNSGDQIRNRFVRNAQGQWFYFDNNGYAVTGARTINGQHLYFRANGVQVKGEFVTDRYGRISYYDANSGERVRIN
Procedure: (§1) The glucosyltransferase inhibitory activity can be measured by using any one of the evaluation methods described in prior-art literatures set forth in Background Art. For example, glucosyltransferase prepared from Streptococcus mutans etc. is added to an aqueous solution containing sucrose, and incubated at about the same temperature (about 37° C.) as in the oral cavity for less than 24 hours, preferably about 16 to 20 hours to enzymatically produce glucan from sucrose. Since glucan is insoluble in water, the turbidity of the resultant reaction solution (for example, turbidity at a wavelength of 550 nm) is measured. In this manner, the yield of glucan can be evaluated. If the yield of glucan low (in other words, turbidity is low), it is said that glucosyltransferase activity is more inhibited than that of the case where the yield of glucan is large (in other words, turbidity is high).
rGTF was prepared by the method described in the paper of M. matsumoto et al, FEMS Microbiology Letters 228 (2003) 73-80. More specifically, Escherichia coli XL-2 strain harboring a plasmid pSK6 having a gene encoding glucosyltransferase B (GTFB) of Streptococcus mutans was subjected to shaking culture performed in Luria Bertani liquid medium containing ampicillin (100 μg/mL) and tetracycline (7.5 μg/mL) at 37° C. for 16 hours. Bacterial cells were collected by centrifugally separating the medium, suspended in a 10 mM phosphate buffer (pH 6.5) previously cooled and crushed by an ultrasonic generator (UD201 type, manufactured by Tomy Seiko Co., Ltd., Tokyo) under ice cooling. After crushed, precipitates were centrifugally removed at 12,000×g for 30 minutes. The resultant supernatant was used as glucosyltransferase B (rGTFB) and put in use in later experiments.
The rGTFB having a specific activity of 503 mU/mg protein and the rGTFC having a specific activity of 6.3 to 22.3 mU/mg protein were used as a mixture. […] Protein was quantified by using the bicinchonine acid method (BCA method) (BCA protein assay kit, manufactured by PIERCE).
(§2) With 2 mL of 0.1M KPB (pH6.0) containing 1% sucrose-containing 0.1% dextran T10, rGTFB or rGTFC (amount corresponding to 15 mU (average value)) obtained in Example 2, and each of the above samples (final concentration: 0.1 mg/mL) were mixed. […] The turbidity (550 nm) of the resultant reaction solution was measured to obtain the yield of glucan insoluble in water. […]
as §2, with “1% sucrose and” for “1% sucrose-containing”, “Example 2” for “Example 2,”, “concentration: 0.05” for “concentration: 0.1”

[2] = target: T2, glucosyltransferase C (GTFC) (Streptococcus mutans serotype c, UniProt P13470); assay: Glucosyltransferase inhibitory activity, turbidity (550 nm) of water-insoluble glucan, rGTFC; type: biochemical; details: 37° C. overnight
T2 construct: made in house; host or cells: Escherichia coli XL-2 harboring a plasmid (printed as pSK6)
T2 sequence (P13470 35-1455): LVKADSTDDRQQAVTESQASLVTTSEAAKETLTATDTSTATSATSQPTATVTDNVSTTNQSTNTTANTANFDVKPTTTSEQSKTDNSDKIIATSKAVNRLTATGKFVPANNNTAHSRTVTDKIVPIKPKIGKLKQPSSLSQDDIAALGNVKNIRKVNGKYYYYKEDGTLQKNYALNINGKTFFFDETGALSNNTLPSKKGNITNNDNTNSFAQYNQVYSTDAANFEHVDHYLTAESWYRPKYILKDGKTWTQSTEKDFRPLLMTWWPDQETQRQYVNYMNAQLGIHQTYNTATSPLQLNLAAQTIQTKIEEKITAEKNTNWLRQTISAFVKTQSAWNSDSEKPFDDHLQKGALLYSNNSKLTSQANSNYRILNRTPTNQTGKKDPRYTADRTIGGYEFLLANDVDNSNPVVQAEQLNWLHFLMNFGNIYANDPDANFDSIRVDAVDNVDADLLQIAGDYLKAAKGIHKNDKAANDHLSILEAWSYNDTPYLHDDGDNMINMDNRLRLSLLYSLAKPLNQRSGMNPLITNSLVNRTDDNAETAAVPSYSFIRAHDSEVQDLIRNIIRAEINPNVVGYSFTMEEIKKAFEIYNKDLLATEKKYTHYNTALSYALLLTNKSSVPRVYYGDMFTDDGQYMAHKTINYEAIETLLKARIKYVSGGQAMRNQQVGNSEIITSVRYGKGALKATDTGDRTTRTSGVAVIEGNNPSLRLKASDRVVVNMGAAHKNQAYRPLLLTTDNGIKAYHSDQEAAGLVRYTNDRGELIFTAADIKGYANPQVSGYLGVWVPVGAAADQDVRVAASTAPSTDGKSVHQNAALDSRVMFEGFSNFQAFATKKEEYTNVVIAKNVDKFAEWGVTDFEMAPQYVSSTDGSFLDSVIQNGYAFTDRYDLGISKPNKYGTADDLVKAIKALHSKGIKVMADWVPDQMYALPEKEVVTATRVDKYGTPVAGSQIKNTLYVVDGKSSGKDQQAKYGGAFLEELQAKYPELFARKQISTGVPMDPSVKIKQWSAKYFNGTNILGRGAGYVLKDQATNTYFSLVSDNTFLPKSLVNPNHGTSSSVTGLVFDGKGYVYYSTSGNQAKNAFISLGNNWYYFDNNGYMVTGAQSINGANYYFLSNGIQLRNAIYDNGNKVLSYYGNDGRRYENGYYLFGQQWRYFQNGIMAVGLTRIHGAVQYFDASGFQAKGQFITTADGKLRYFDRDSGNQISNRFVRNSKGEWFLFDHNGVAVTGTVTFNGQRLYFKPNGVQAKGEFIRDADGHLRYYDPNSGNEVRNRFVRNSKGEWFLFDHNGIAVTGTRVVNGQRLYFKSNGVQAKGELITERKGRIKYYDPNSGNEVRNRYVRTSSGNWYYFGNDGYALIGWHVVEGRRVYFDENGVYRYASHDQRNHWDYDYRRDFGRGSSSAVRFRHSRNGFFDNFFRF
Procedure: as §1
Similarly, recombinant glucosyltransferase C (rGTFC) was prepared by using Escherichia coli XL-2 strain harboring a plasmid pSK6 having a gene encoding glucosyltransferase C (GTFC) of Streptococcus mutans and put in use in later experiments.
The rGTFB having a specific activity of 503 mU/mg protein and the rGTFC having a specific activity of 6.3 to 22.3 mU/mg protein were used as a mixture. The activity 1U represents activity of an enzyme in converting glucose ([…]) derived from sucrose into glucan per minute. Protein was quantified by using the bicinchonine acid method (BCA method) (BCA protein assay kit, manufactured by PIERCE).
(§3) With 2 mL of 0.1M KPB (pH6.0) containing 1% sucrose-containing 0.1% dextran T10, rGTFB or rGTFC (amount corresponding to 15 mU (average value)) obtained in Example 2, and each of the above samples (final concentration: 0.1 mg/mL) were mixed. The mixture was incubated at 37° C. overnight. The turbidity (550 nm) of the resultant reaction solution was measured to obtain the yield of glucan insoluble in water. The lower yield of the glucan insoluble in water (in other words, turbidity is low) means that the activity of glucosyltransferase is more inhibited. Note that the control (cont) shown in the figures represents turbidity in the absence of the aforementioned samples.
as §3, with “1% sucrose and” for “1% sucrose-containing”, “Example 2” for “Example 2,”, “concentration: 0.05” for “concentration: 0.1”, “inhibited. […]” for “inhibited. Note that the control (cont) shown in the figures represents turbidity in the absence of the aforementioned samples.”

[3] = tested on: glucosyltransferase (GTF); assay: Overall GTF inhibitory activity, conclusion from the rGTFB and rGTFC tests; type: biochemical, Streptococcus mutans; details: summary of Examples 3 and 4, GTFB and GTFC
Procedure: as §3
as §3, with “1% sucrose and” for “1% sucrose-containing”, “Example 2” for “Example 2,”, “concentration: 0.05” for “concentration: 0.1”

[4] = sample final concentration 0.1 mg/mL, FIG. 7
[5] = sample final concentration 0.1 mg/mL, FIG. 8

Compound	effect on the activity of GTFB (yield of water-insoluble glucan, turbidity) [1, 4]	effect on the activity of GTFC (yield of water-insoluble glucan, turbidity) [2, 5]	GTF inhibitory activity (overall) [3]	effect on the activity of GTFB (yield of water-insoluble glucan, turbidity) ([1]; sample final concentration 0.05 mg/mL, FIG. 9)	effect on the activity of GTFC (yield of water-insoluble glucan, turbidity) ([2]; sample final concentration 0.05 mg/mL, FIG. 10)
O=C(O[C@@H]1Cc2c(O)cc(O)c(Cc3c(O)cc(O)c4c3O[C@H](c3cc(O)c(O)c(O)c3)[C@H](OC(=O)c3cc(O)c(O)c(O)c3)C4)c2O[C@@H]1c1cc(O)c(O)c(O)c1)c1cc(O)c(O)c(O)c1 [OHBF-A, oolong homobisflavan-A]	inhibits	slightly enhances	–	–	–
O=C(O[C@@H]1Cc2c(cc(O)c(Cc3c(O)cc(O)c4c3O[C@H](c3cc(O)c(O)c(O)c3)[C@H](OC(=O)c3cc(O)c(O)c(O)c3)C4)c2O)O[C@@H]1c1cc(O)c(O)c(O)c1)c1cc(O)c(O)c(O)c1 [OHBF-B, oolong homobisflavan-B]	inhibit	inhibit	high	–	–
O=C(O[C@@H]1Cc2c(O)cc(O)c(Cc3c(O)c(Cc4c(O)c(Cc5c(O)cc(O)c6c5O[C@H](c5cc(O)c(O)c(O)c5)[C@H](OC(=O)c5cc(O)c(O)c(O)c5)C6)c(O)c5c4O[C@H](c4cc(O)c(O)c(O)c4)[C@H](OC(=O)c4cc(O)c(O)c(O)c4)C5)c4c(c3O)C[C@@H](OC(=O)c3cc(O)c(O)c(O)c3)[C@@H](c3cc(O)c(O)c(O)c3)O4)c2O[C@@H]1c1cc(O)c(O)c(O)c1)c1cc(O)c(O)c(O)c1 [OHBF-Tet-2, oolong homobisflavan-tetramer-2]	–	–	–	significant inhibitory effect on GTFB was not confirmed	slightly inhibited
O=C(O[C@@H]1Cc2c(O)cc(O)cc2O[C@@H]1c1cc(O)c(O)c(O)c1-c1c([C@H]2Oc3cc(O)cc(O)c3C[C@H]2OC(=O)c2cc(O)c(O)c(O)c2)cc(O)c(O)c1O)c1cc(O)c(O)c(O)c1 [TSN-A, theasinensin A, reference compound]	substantially no effect	extremely enhances	–	–	–
